Results published in patent publication US20210275547A1, “Methods of Modulating Activity of a Cyclic Dinucleotide (CDN) with a CDN Transporter-Modulating Agent” (THE REGENTS OF THE UNIVERSITY OF CALIFORNIA, priority 2018, published 2021).
Entries after “also recorded” stand apart in the source; their conditions may differ.

Legend:
SLC19A1 [1] = target: T1, SLC19A1 (Homo sapiens, UniProt P41440); assay: Reporter response to CDNs in THP-1 cells with SLC19A1 knocked down or overexpressed; conditions: SLC19A1 knockdown vs control, synthetic CDN 1.7 μg/ml, hIFNβ 100 ng/ml, 20 h
T1 sequence (P41440 1-591): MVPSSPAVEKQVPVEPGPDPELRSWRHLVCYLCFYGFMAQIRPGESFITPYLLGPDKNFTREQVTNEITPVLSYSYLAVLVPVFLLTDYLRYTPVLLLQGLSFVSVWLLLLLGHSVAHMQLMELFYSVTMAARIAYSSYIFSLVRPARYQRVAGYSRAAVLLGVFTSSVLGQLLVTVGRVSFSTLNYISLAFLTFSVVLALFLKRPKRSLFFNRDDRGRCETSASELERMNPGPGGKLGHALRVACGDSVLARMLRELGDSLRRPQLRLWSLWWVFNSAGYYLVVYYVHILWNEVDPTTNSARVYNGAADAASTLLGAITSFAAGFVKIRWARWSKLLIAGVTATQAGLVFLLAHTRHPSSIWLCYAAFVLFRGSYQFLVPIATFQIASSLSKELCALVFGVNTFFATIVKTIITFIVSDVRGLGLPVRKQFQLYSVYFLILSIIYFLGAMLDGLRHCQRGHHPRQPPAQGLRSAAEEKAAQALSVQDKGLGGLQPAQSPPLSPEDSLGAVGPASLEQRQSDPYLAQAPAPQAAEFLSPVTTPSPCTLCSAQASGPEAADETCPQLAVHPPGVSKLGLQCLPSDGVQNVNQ
Description: To test the role of SLC19A1 in the response to extracellular CDNs, THP-1 cell lines were created in which SLC19A1 was knocked-down or knocked-out, using conventional methods. SLC19A1 knockdown was confirmed and cells were stimulated with synthetic CDN or hIFNβ.
Panel A) Flow cytometry-generated dot plots of THP-1 cells expressing an ISRE-driven tdTomato reporter. Reporter expression was induced upon stimulation with the synthetic CDN (1.7 μg/ml) for 20 h. Panel B) Validation of targets identified by a genome-wide screen using THP-1 cells described in (Panel A) using conventional methods. Cells expressed a control vector or IRF3 or SLC19A1 gRNA. Cells were stimulated with (Panel B) synthetic CDN (1.7 μg/ml) or (Panel D) human interferon-beta (hIFNβ) (100 ng/ml) for 20 h. Cells were analyzed for reporter by flow cytometry as in (A). E) Indicated cell lines expressing SLC19A1 or vector only were stimulated with synthetic CDN (1.7 μg/ml). Reporter expression was measured 20 h after stimulation.

[2] = tested on: THP-1 cells expressing an ISRE-driven tdTomato reporter; assay: Synthetic CDN or hIFNβ stimulation of tdTomato reporter THP-1 cells in the presence of sulfasalazine; format: cell-based, human
Description: To identify genes encoding molecules involved in this process, a reporter system was created to detect STING activation in response to extracellular CDNs, in order to perform a genetic screen. The reporter was composed of an Interferon Stimulatory Response Element (ISRE) cassette driving the expression of the fluorescent protein tdTomato. […] Subsequently, THP-1 cells containing the reporter were transduced with a genome-wide library of guide RNAs (gRNAs), which suppress expression of target genes. The library targeted 20,000 genes within the human genome. The gRNA library-expressing THP-1 cells were stimulated with synthetic CDN, and the cells were subsequently sorted into two populations based on either low (hyporesponsive) or high (hyper-responsive) levels of tdTomato reporter expression. These populations were sequenced to reveal the RNA targets. As expected, gRNAs targeting components of the STING pathway, including IRF3 and STING itself, were enriched in the hyporesponsive cells and depleted in the hyper-responsive cells, corroborating the success of the screening procedure. Other “hits” in the screen were examined for their role in CDN transport.
The transport activity of folate by SLC19A1 can be altered by a variety of organic and inorganic anions, including the compound sulfasalazine (Jansen et al. “Sulfasalazine is a potent inhibitor of the reduced folate carrier: Implications for combination therapies with methotrexate in rheumatoid arthritis.” Arthritis Rheum. 50, 2130-2139 (2004); Goldman, “The characteristics of the membrane transport of amethopterin and the naturally occurring folates.” Ann. N. Y. Acad. Sci. 186, 400-22 (1971)). […] We therefore tested whether sulfasalazine blocks the response of cells to CDNs.
FIG. 2. Panel A) THP-1 cells were stimulated with synthetic CDN (2.5 μg/ml) in the presence of high concentrations of sulfasalazine (SSZ) or vehicle. Reporter expression was measured 20 h post stimulation. […] Reporter expression was measured 20 h post stimulation.

SLC19A1 [3] = target: T1, SLC19A1; conditions: at high doses; cited from earlier work

## Nc1ncnc2c1ncn2[C@@H]1O[C@@H]2COP(=O)(O)O[C@H]3[C@@H](O)[C@H](n4cnc5c(N)ncnc54)O[C@@H]3COP(=O)(O)O[C@H]2[C@H]1O [CDA, cyclic di-AMP]
SLC19A1 [1]
  effect of knocking down SLC19A1 expression on the response to the stimulant: reduced the response

## O=C(O)c1cc(/N=N/c2ccc(S(=O)(=O)Nc3ccccn3)cc2)ccc1O [sulfasalazine]
[2]; either low or high sulfasalazine concentrations
  response of the cells to hIFNβ: only marginally affected
[2]; high concentration (1000 μM) of sulfasalazine, synthetic CDN 2.5 μg/ml, 20 h post stimulation
  response to synthetic CDN stimulation (reporter expression): complete blocking; also recorded: almost completely blocked
[2]; low concentrations of sulfasalazine (e.g. 100 μM), synthetic CDN 1.25 μg/ml, 20 h post stimulation
  responsiveness of cells to synthetic CDN compared to untreated cells (reporter expression): significantly increased
SLC19A1 [3]
  transport of folates and folate-derivatives by SLC19A1: non-competitively inhibits
